These results are taken from paper PMC11215747, “Improved Rigidin-Inspired Antiproliferative Agents with Modifications on the 7-Deazahypoxanthine C7/C8 Ring Systems” (Journal of Medicinal Chemistry, 2024).

Entries after “also recorded” stand apart in the source; their conditions may differ. Where two headings read alike, the source gives them in different places.

As usually defined, the GI50 is the concentration that inhibits growth by half.

For one data set, the system named is PNT1A cells. In words: MTT cytotoxicity assay against normal epithelial cell line PNT1A. Conditions: Homo sapiens, PNT1A. Type of data set: cell-based. The protocol: (§1) The 3-(4,5-dimethylthiazol-2-yl)-2,5-diphenyltetrazolium bromide (MTT) assay was employed to evaluate the antiproliferative activities of the synthesized 7-deazahypoxathine analogues. The HeLa, PNT1A, or PANC-1 cell lines were assessed by trypsinizing and seeding 4 × 10^3 cells per well into 96-well plates. Synthesized compounds were dissolved in DMSO at a concentration of either 50 mM or 100 mM before cell treatment. Cells were grown for 24 h and then treated with compounds at concentrations ranging from 0.04 to 100 μM and incubated for 48 h in 200 μL media. Twenty microliters of MTT reagent in serum-free medium (5 mg/mL) was added to each well and incubated further for 2 h. Media was removed and the resulting formazan crystals were resolubilized in 200 μL of DMSO. A Thermomax Molecular Device plate reader was utilized to measure A490. Experiments were performed in quadruplicate and repeated at least twice for each compound. The control comprised of cells treated with 0.1% DMSO. One micromolar phenyl arsine oxide (PAO) was utilized as a positive killing control.
On the technique in general: Tetrazolium assays rely on reduction of a dye to a coloured formazan, in cell work by metabolically active cells.

Data set [1] relates to HeLa cells. In words: Annexin V apoptosis assay and cell-fate tracking in HeLa cells. The settings on record: 20 nM; for apoptosis at the 30 hour time point (Annexin V fluorescence): 6 biological replicates, one-way ANOVA amongst compounds; for total numbers of cells that died following mitotic arrest: single-cell tracking, >130 cells per treatment. Type of data set: cell-based, Human. The protocol:
To directly assess apoptosis in living cells, HeLa cells were plated (six biological replicates per condition) in 96-well Imagelock Plates (Sartorius BA-04855) at a density of 1,562.5 cells/cm^2. The following day, cells were placed in media containing IncuCyte Annexin V Dye (Sartorius 4642) supplemented with either 0.1% Dimethyl sulfoxide or test compounds (20 nM), and plates were placed in a Sartorius Incucyte S3 live cell imaging system. Plates were scanned hourly, with phase contrast and green fluorescence images were acquired at three positions per well. Raw fluorescence data was processed using Incucyte software, and Prism Graphpad was used for data visualization and statistical analysis. To track individual cell fates, combined phase contrast/fluorescence time lapse sequences were exported from multiple wells per condition, and cell fates individual cells were scored and tabulated using Graphpad Prism software.

A further data set relates to MCF-7 cells. Further details: method as in PMID 26641132. The settings on record: cited from earlier work.
The next data set has as its system human colon cancer lines. Further details: method as in PMID 26641132. The settings on record: several human colon cancer lines; cited from earlier work.
A further data set deals with colon cancer. Further details: method as in PMID 26641132. The settings on record: mouse model for colon cancer, 3 mg/kg; cited from earlier work.
In data set [2] the test system is WI38 embryonic lung fibroblast cell line. Further details: method as in PMID 26641132. Conditions: fold less active; cited from earlier work.
For data set [3], the system named is HeLa cells. In words: MTT antiproliferative assay against HeLa cells. The data set is classed as cell-based, Human. Conditions: Homo sapiens, MTT, 48 h, average and SD from two independent determinations, each in quadruplicate (footnote c), read-out: GI50 (μM) ± SD. The protocol: as §1, with “control. […]” for “control.”
For a further data set, the system named is PANC-1 cells. In words: MTT cytotoxicity assay against PANC-1 cells. The data set is classed as cell-based. Conditions: Homo sapiens; PANC-1 cell line. The protocol:
as §1

In another data set the target is T1, tubulin (Sus scrofa, UniProt P02554).
T1 construct: purchased Cytoskeleton, Inc
Description: Fluorescence-based tubulin polymerization assay. Type of data set: biochemical. The settings on record: 25 μM, relative to 1% DMSO control, averaged from two experiments. The protocol:
The fluorescence-based tubulin polymerization assay from Cytoskeleton, Inc. was used. […] The tubulin reaction mixture was prepared per manufacturer’s instructions, kept on ice, and used within ∼15 min of preparation. A Biotek Synergy H4 hybrid multimode plate reader was preheated to 37 °C. Prior to starting the assay, a half-area black 96-well plate was preheated within the plate reader. A volume of 5 μL of each of the tested samples was pipetted into separate wells of the plate and incubated in the warm plate reader for 1 min.

Data set [4] has as its system HeLa cells. Description: Microtubule organization by immunolabeling in HeLa cells. Type of data set: cell-based, Human. The settings on record: 4 h. The protocol:
To examine microtubule morphology in rigidin-treated cells, HeLa cells were incubated for 4 h in the presence or absence of test compound before being fixed with 3.7% formaldehyde in PBS and permeabilized with 0.1% Triton X-100 in PBS. After blocking the cells with 3% bovine serum albumin in PBS, they were probed with antibodies for the centromere marker CENP-B (Abcam, code ab25734) and tubulin (Sigma, code sc-53029), which were detected with Alexa Fluor-labeled secondary antibodies (Thermofisher). Hoechst 33342 (1 mg/mL, Thermofisher H3570) was used to stain DNA. Samples were mounted on glass slides and imaged using Andor Dragonfly 505 spinning disk confocal system mounted on an Olympus IX83 inverted microscope. Figures were created with Adobe Photoshop CS5. All drugs were resuspended in DMSO, and 0.1% DMSO served as a carrier control.

Data set [5] deals with HeLa cells. Description: Live cell imaging of EGFP-tubulin expressing HeLa cells. The settings on record: 7.5 nM (50% of GI50), 4 h. Type of data set: cell-based, Human. The protocol:
HeLa cells were plated on 35 mm glass-bottomed Mattek dishes (Mattek, code P35G-1.5–14-C). Next day, transient transfection of EGFP-tubulin was performed using a Lipofectamine 2000 (Thermofisher code 11668019) according to the manufacturer’s instructions. After 6 h of transfection, cells were cultured in fresh media overnight before being treated with either 0.1% DMSO or 7.5 nM analogue 33 for 4 h. To visualize chromatin, cells were cultured in the presence the cell permeant NucSpot Live nuclear stain (Biotium code 40082) for 60 min prior to imaging. Cells were imaged live using an Andor Dragonfly 505 spinning disk confocal system mounted on an Olympus IX83 inverted microscope. Cell viability was maintained by an Oko Touch prewarmed (37 °C) temperature-controlled microscope stage supplied with 5% CO2. Z-stacks (10 planes at […] intervals) were acquired every 2 min using a 60× Aprochromat silicon objective (NA 1.30) and an Andor iXon 888 EMCCD camera driven by Andor Fusion software. Fusion IMS files were converted to tiff images and avi movies using FIJI, and figures were prepared in Adobe Photoshop CS5.

T1 sequence (P02554 whole entry): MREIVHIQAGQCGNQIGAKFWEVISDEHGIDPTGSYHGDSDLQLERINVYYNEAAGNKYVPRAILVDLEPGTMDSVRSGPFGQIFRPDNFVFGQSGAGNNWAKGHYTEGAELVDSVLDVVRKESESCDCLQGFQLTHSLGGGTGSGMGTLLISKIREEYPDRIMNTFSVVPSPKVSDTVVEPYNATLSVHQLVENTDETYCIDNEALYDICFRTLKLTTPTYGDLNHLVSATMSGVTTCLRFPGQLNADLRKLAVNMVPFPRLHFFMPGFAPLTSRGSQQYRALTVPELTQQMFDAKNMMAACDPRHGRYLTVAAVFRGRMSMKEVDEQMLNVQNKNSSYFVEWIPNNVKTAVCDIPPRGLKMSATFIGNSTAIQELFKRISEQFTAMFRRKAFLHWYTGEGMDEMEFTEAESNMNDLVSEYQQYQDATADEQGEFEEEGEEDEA
T1 sequence (P02550 whole entry partner): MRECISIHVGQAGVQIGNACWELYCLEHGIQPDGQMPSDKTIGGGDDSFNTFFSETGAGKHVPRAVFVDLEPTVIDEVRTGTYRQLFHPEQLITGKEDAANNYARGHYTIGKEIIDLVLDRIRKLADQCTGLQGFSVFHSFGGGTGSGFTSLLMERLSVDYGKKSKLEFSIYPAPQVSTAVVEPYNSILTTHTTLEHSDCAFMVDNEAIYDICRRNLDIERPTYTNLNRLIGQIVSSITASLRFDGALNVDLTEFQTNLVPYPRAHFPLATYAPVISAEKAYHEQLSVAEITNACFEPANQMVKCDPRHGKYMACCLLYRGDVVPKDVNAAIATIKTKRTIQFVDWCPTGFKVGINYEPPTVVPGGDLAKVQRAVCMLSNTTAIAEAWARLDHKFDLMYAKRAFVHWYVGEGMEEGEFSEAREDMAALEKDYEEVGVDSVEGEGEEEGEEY

As for `C#CCCCc1nc(=O)c2c(-c3ccccc3)c(C(=O)c3ccccc3)[nH]c2[nH]1` [Compound 1, 6-Benzoyl-2-(pent-4-yn-1-yl)-5-phenyl-1,7-dihydro-4H-pyrrolo[2,3-d]pyrimidin-4-one], the GI50 in the data set with PNT1A cells (read-out: PNT1A GI50(mM)) turned out to be 36 ± 9 nM. Besides, in the data set on HeLa cells [1], the “apoptosis at the 30 hour time point (Annexin V fluorescence)” value is recorded as “no significant differences” and the “total numbers of cells that died following mitotic arrest” value was 75%. Besides, the GI50 with MCF-7 cells is 35 nM. Moreover, the GI50 values result in the data set on human colon cancer lines is recorded as “approaching single-digit nanomolar values”. In the data set with colon cancer, the body weight entry is reported as “maintaining body weight”, the side effects entry is listed as “no observable side effects” and the tumor size result is given as “significant tumor size reduction”. The “activity against WI38 compared to four colorectal cancer cell lines” value in data set [2] was “approximately 1000 fold”.
On to `C#CCCCc1nc(=O)c2c(-c3ccccc3)c(C(=O)c3ccc(OCCOCC)cc3)[nH]c2[nH]1` [Compound 33, 6-[4-(2-Ethoxyethoxy)benzoyl]-2-(pent-4-yn-1-yl)-5-phenyl-1,7-dihydro-4H-pyrrolo[2,3-d]pyrimidin-4-one], for which the concentration for 50% growth inhibition (GI50) with HeLa cells [3] is 0.015 ± 0.004 µM; in the data set on PANC-1 cells, 15 nM; with PNT1A cells (molecular formula strings CSV, read-out: PNT1A GI50) it was 24 ± 5 nM. Besides, at tubulin, the “effect on in vitro tubulin polymerization” value is “potent inhibition of microtubule assembly; also recorded: completely suppress tubulin polymerization”. Also, in the data set on HeLa cells [1], the “apoptosis at the 30 hour time point (Annexin V fluorescence)” value is given as “no significant differences”. For the same compound, the “total numbers of cells that died following mitotic arrest” value in the data set with HeLa cells [1] is 86%. The “effect on interphase microtubules” value with HeLa cells [4] (at GI50 concentrations) is reported as “no striking effects on interphase microtubules”. For the same compound, in the data set on HeLa cells [4] (at GI50 concentrations), the “effect on spindle morphology” value is “remarkable effects on the spindle morphology”. Besides, the syntelic chromosome attachments result in the data set on HeLa cells [4] (lower concentrations (GI25)) is given as “still prevalent”. Moreover, the “mitotic progression in live cell imaging” value in the data set on HeLa cells [5] is “various responses ranging from correcting the syntelic attachments and progressing through mitosis to prolonged prometaphase arrest, followed by mitotic exit and/or cell death”.
